According to patent publication US11453664B2, “Thymoquinone/harmaline and related reaction products” (Ankh Life Sciences Limited, priority 2018, dated 2022):

Key:
MIN-6 cell line [1] = test: Glucose stimulated insulin secretion assay, Example 5; assay type: cell-based, mouse; settings: MIN-6, glucose 2, 10 and 20 mM, 1 hour
Procedure: In this test, a glucose stimulated insulin secretion assay was performed using the MIN-6 cell line and compounds C1 and C2 of Example 4. The test details and assay conditions are set forth below.
(§1) The cells were washed with KRB containing 0.1% BSA and starved for 1 hour in 2 mM glucose-KRB/BSA at 37° C. in 5% CO2. Following starvation, the cells were treated with or without the compounds at varying glucose concentrations of 2 mM, 10, mM, and 20 mM in KRB/BSA for 1 hour at 37° C. in 5% CO2. The amount of secreted mouse insulin was measured in the KRB/BSA incubation buffer using the mouse insulin ELISA kit from Mercer EXPert Assays. The cells were then lysed for protein quantification. The data presented in FIGS. 5-6 illustrate the secreted insulin test results for glucose and diazoxide, while FIGS. 7-9 (compound C1) and 10-12 (compound C2) illustrate the secreted insulin test results using C1 and C2. The data presented in FIGS. 7-12 are presented as the fold changes in the secreted insulin per milligram protein per hour, compared to the cell control.

[2] = system: NOD mouse model of diabetes; test: NOD mouse model of diabetes, TQ 725 as single agent; assay type: in vivo, mouse (NOD/ShiLtJ)
Procedure: This test was designed to evaluate the in vivo activity of the TQ-harmaline reaction product (referred to as “TQ 725”), which was a mixture of compounds I-IV and VI (MW about 378), V and VII (MW about 360), and VIIID and VIIIF (MW about 540), as single agent in the NOD mouse model of diabetes. […] The female NOD mice show evidence of diabetes onset by age week 12 and 70% presenting with diabetes (non-fasting plasma glucose higher than 250 mg/dl) by age week 20. The significant endpoint is assessment of weekly blood glucose levels.
The pancreatic tissues from the test mice were assayed by conventional insulin staining according to the following ratings: 0—no staining on islet cells; 1—of islets with positive stains, stain cells are minimal in number; 2—of islets with positive stain, stain cells are less than 50% of the cells; 3—of the islets with positive stains, stain cells are greater than 50% of the cells.
FIGS. 1 and 2 illustrate the body weight and blood glucose level results collected during the test. In each of these Figures, graph A refers to Group 1, the vehicle control (PO) QD to end; graph B refers to Group 2, 725.001 100 mg/kg days 1-27, followed by 400 mg/kg days 28 to end (PO); graph C refers to Group 3, 725.001 200 mg/kg (PO) QD to end; and graph D refers to Group 4, metformin 600 mg/kg (in H2O) Ad libitum days 1-8, followed by 600 mg/kg (PO) QD days 9 to end.

[3] = Subsequent investigations of activity of the components of TQ 725; settings: context: diabetes; no method given
MIN-6 cell line [4] = test: Glucose stimulated insulin secretion assay, Example 6; assay type: cell-based, mouse; settings: MIN-6, 100 nM, 10 mM of glucose, 1 hour
Procedure: In this test, a glucose stimulated insulin secretion assay was performed using the MIN-6 cell line and a compound mixture of compounds VIIID and VIIIF (MW about 540), referred to as C3. The test details and assay conditions are set forth below.
as §1, with “data is” for “data”, “13 (gliclazide)” for “5-6 illustrate the secreted insulin test results for glucose”, “14-16 (C3)” for “diazoxide, while FIGS. 7-9 (compound C1) and 10-12 (compound C2) illustrate the secreted insulin test results using C1 and C2. The data presented in FIGS. 7-12 are presented”, “change” for “changes”

MIN-6 cell line [5] = test: Glucose stimulated insulin secretion assay, Example 7; assay type: cell-based, mouse; settings: 2 hours
Procedure: In this test, another glucose stimulated insulin secretion assay was performed using two test compounds, namely C1 (MW about 378) and C3 (MW about 540). The MIN-6 cell line was used and the test details and assay conditions are set forth below.
The cells were revived and maintained in T-flasks. Upon reaching the required confluency, the cells were seeded in 96-well plates. The seeded cells were serum-starved in the presence of glucose for 30 minutes at 37° C. in 5% CO2. Following starvation, the cells were treated with or without the compounds at the varying glucose concentrations in KRB for 2 hours at 37° C. in 5% CO2. The cell supernatants were collected and tested for insulin secretion using the mouse insulin ELISA kit from Mercer EXPert Assays.

With CC1=NS(=O)(=O)c2cc(Cl)ccc2N1 [Diazoxide] the “effect on insulin secretion” value (MIN-6 cell line [1]) was “significant inhibition of insulin secretion”.
In the case of CN(C)C(=N)N=C(N)N [Metformin], the body weight ([2]; Group 4: 600 mg/kg, data not deemed reliable) is reported as “trended downwardly” and the “insulin staining of pancreatic tissues, mean value” ([2]; Group 4: ad libitum days 1-8, 600 mg/kg PO days 9-56, rating scale 0-3) is reported as 0.50.
With COc1ccc2c(c1)=NC1C(/C=C3/C=C(C(C)C)C(=O)C=C3C)=NCCC=21 (centres unmarked) [VII] the “relative activity among the components of TQ 725” value [3] was “most active”.
In the case of COc1ccc2c(c1)=NC1C(CC3(O)C=C(C(C)C)C(=O)C=C3C)=NCCC=21 (centres unmarked) [VI], the “relative activity among the components of TQ 725” value [3] is reported as “most active”.
In the case of Cc1ccc(S(=O)(=O)NC(=O)NN2CC3CCCC3C2)cc1 (centres unmarked) [Gliclazide], the “effect on insulin secretion” value (MIN-6 cell line [4]) is reported as “enhanced insulin secretion”, the “insulin secretion at the lower glucose concentration” value (MIN-6 cell line [5]; MIN-6, glucose 2 mM, 100 μM) is reported as “enhanced insulin secretion was observed” and the “insulin secretion at the higher glucose concentration” value (MIN-6 cell line [5]; MIN-6, glucose 25 mM) is reported as “saturation effect”.
